Assay results taken from patent US5604219A, “Indolocarbazole derivatives that stimulate platelet production” (Kyowa Hakko Kogyo Co., Ltd., priority 1994, dated 1997).

Legend:
[1] = system: bone marrow cells (megakaryocyte colony formation); assay: Megakaryocyte colony formation-stimulating activity (Test Example 1); assay type: cell-based, BALB/c mouse; details: with IL-3 (100 U/ml), 7 days, control (IL-3 alone) defined as 100
Experimental: An eight-weeks-old BALB/c mouse was killed. Its femurs and cervical vertebrae were taken out, and both end sections thereof were cut off. Bone marrow cells were collected from the pieces cut off from the femurs and cervical vertebrae using a syringe containing IMDM (430-2200EA prepared by Gibco Co.), and then blown into a test tube. The test tube was allowed to stand for 5 minutes, and the supernatant was collected with a piper. To a reaction mixture comprising the bone marrow cells (50,000 cells), bovine serum albumin (2%: A4508 made by Sigma Co.), transferrin (600 μg/ml: 652202 made by Boehringer Mannheim Co.), IL-3 (100 U/ml), cholesterol (16 μg/ml: 036-0641 made by Wako Co.) and agar (0.6%: 0142-02 made by Difco Laboratories) were separately added the test compounds at various concentrations, and 1 ml each of the mixtures was put into a 35-mm dish (Lux Co.), followed by incubation under the conditions of 37° C. 5% CO2 and a humidity of 95% or more for 7 days. Separately, IL-3 alone was added to the bone marrow cells to prepare a control. After the incubation was completed, the agar was dried over a filter paper (1001-055 made by Whatman Co.) and then fixed with 2.5% glutaraldehyde, followed by acetylcholinesterase staining (ACHE staining).
The ACHE staining was carried out by the method described below.
ACHE staining: To each sample was added a solution comprising 0.67 mg/ml acetylthiocholine iodide, 2.94 mg/ml sodium citrate, 7.5 mg/ml copper (II) sulfate and 1.65 mg/ml potassium ferricyanide, and the mixture was allowed to stand at room temperature in the dark for 4-6 hours.
A group of 4 or more megakaryocytes which were stained reddish brown was regarded as a colony, and the number of colonies per dish was calculated using a microscope. The results are shown in Table 2 as relative values to the control.

[2] = system: platelets; assay: Platelet production-stimulating activity in mice (Test Example 2); assay type: in vivo, male BALB/c mice; details: intraperitoneal, once a day for 5 days, platelets counted on day 15, A test group, B control group
Excerpt: A test compound was intraperitoneally administered to four 7-week-old male BALB/c mice per group once a day for consecutive 5 days (day 1 to day 5). A control group (4 mice per group) received only the solvent (5% Tween water). The blood was collected from the fundus oculi vein of each animal on the 15th day from the start of administration (day 15), and the number of the platelets was counted with a microcell counter (Model CC-180A, manufactured by Toa Iryo Denshi Co.). The rate of increase of the number of platelets in the test group (average) over the control (average) was calculated according to the following formula to evaluate the effect of the test compound.
Rate of Increase = A/B × 100
A: the number of platelets in test group
B: the number of platelets in control group

`CN[C@@H]1C[C@H]2O[C@@](C)([C@@H]1OC)n1c3ccccc3c3c4c(c5c6ccccc6n2c5c31)C(=O)N(CO)C4` [Compound 1] was tested, and the “Rel. Value (number of megakaryocyte colonies per dish, relative to control)” value ([1]; Concn. 1 nM) was 129.

`CN[C@@H]1C[C@H]2O[C@@](C)([C@@H]1OC)n1c3ccccc3c3c4c(c5c6cc(C)ccc6n2c5c31)C(=O)N(C)C4` [Compound 8] was tested, and the “Rel. Value (number of megakaryocyte colonies per dish, relative to control)” value ([1]; Concn. 10 nM) was 157 and the “Rate of increase (number of platelets, A/B × 100)” value (“Rate of increase” for short) ([2]; 25 mg/kg) was 134%.

With `CN[C@@H]1C[C@H]2O[C@@](C)([C@@H]1OC)n1c3ccccc3c3c4c(c5c6cc(N)ccc6n2c5c31)C(=O)N(C)C4` [Compound 12] the “Rel. Value (number of megakaryocyte colonies per dish, relative to control)” value ([1]; Concn. 10 nM) was 126.

For `CN[C@@H]1C[C@H]2O[C@@](C)([C@@H]1OC)n1c3ccc(N)cc3c3c4c(c5c6cc(N)ccc6n2c5c31)C(=O)N(C)C4` [Compound 16], the “Rel. Value (number of megakaryocyte colonies per dish, relative to control)” value ([1]; Concn. 1 nM) was 125.

`CN[C@@H]1C[C@H]2O[C@@](C)([C@@H]1OC)n1c3ccc(OC(=O)C(C)(C)C)cc3c3c4c(c5c6cc(OC(=O)C(C)(C)C)ccc6n2c5c31)C(=O)N(C)C4` [Compound 22] was tested, and the “Rate of increase” value ([2]; 50 mg/kg) was 168%.

With `CN[C@@H]1C[C@H]2O[C@@](C)([C@@H]1OC)n1c3ccccc3c3c4c(c5c6cc(C=NN(C)C)ccc6n2c5c31)C(=O)N(C)C4` [Compound 28] the “Rel. Value (number of megakaryocyte colonies per dish, relative to control)” value ([1]; Concn. 1 nM) was 134 and the “Rate of increase” value ([2]; 12.5 mg/kg) was 156%.

`CN[C@@H]1C[C@H]2O[C@@](C)([C@@H]1OC)n1c3ccccc3c3c4c(c5c6cc(CSCCN(C)C)ccc6n2c5c31)C(=O)N(C)C4` [Compound 30] was tested, and the “Rel. Value (number of megakaryocyte colonies per dish, relative to control)” value ([1]; Concn. 1 nM) was 116.
